Laboratory results reported in PMC4710668, “Bioactivation of food genotoxicants 5-hydroxymethylfurfural and furfuryl alcohol by sulfotransferases from human, mouse and rat: a comparative study” (Archives of Toxicology, 2014).
“And” between values parts separate entries of the source, which are not always exact repeats. Equal values may be shown once. Marks after values point to notes of the source that are not given here.

Columns and labels:
Assay in all cases: FFA sulfoconjugation assay (N6-MF-A formation with adenosine as scavenger)
Assay type in all cases: biochemical
mSult1a1 = target: T1, mSult1a1 (Mus musculus, UniProt P52840)
T1 construct: made in house; host or cells: Salmonella typhimurium TA1538 (cytosolic fraction, enzyme not purified)
T1 sequence (P52840 whole entry): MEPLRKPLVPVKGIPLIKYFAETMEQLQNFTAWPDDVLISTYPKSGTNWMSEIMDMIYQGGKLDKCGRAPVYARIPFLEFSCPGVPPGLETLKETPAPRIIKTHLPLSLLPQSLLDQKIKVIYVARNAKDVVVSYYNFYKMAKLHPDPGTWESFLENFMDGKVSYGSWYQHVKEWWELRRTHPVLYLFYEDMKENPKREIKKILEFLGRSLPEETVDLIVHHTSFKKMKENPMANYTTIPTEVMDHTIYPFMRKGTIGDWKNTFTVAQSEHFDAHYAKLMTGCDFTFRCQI
How it was run: (§1)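 Cytosols from S. typhimurium TA1538 expressing individual SULTs are incubated at 37 °C for 20 min with FFA plus 10 mM adenosine. Reactions are quenched in methanol containing [15N5]N6-MF-A, and supernatants are analysed by UPLC-MS/MS. Spontaneous, SULT-independent adduct formation is corrected using SULT-deficient cytosols.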

rSult1b1 = target: T2, rSult1b1 (Rattus norvegicus, UniProt P52847)
T2 construct: made in house; host or cells: Salmonella typhimurium TA1538 (cytosolic fraction, enzyme not purified)
T2 sequence (P52847 whole entry): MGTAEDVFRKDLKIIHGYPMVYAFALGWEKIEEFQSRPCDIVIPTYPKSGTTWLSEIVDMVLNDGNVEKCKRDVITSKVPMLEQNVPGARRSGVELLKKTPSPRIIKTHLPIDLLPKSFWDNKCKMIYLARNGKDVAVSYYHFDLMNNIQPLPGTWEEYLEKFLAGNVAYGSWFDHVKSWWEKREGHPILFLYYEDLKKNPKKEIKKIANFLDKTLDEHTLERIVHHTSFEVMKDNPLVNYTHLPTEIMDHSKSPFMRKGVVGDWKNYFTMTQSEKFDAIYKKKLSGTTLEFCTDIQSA
How it was run: as §1

hSULT1C2 = target: T3, hSULT1C2 (Homo sapiens, UniProt O75897)
T3 construct: made in house; host or cells: Salmonella typhimurium TA1538 (cytosolic fraction, not purified)
T3 sequence (O75897 whole entry): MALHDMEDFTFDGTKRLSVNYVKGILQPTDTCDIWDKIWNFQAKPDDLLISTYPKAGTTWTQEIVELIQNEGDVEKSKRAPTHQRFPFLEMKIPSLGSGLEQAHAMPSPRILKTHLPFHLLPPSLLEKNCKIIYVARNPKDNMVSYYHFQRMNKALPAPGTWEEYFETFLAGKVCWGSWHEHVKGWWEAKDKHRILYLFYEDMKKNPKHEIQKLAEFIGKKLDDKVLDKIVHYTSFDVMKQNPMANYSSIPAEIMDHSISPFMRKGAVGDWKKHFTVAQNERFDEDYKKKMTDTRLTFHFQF
How it was run: as §1

mSult1c2 = target: T4, mSult1c2 (Mus musculus, UniProt Q9D939)
T4 construct: made in house; host or cells: Salmonella typhimurium TA1538 (cytosolic fraction, enzyme not purified)
T4 sequence (Q9D939 whole entry): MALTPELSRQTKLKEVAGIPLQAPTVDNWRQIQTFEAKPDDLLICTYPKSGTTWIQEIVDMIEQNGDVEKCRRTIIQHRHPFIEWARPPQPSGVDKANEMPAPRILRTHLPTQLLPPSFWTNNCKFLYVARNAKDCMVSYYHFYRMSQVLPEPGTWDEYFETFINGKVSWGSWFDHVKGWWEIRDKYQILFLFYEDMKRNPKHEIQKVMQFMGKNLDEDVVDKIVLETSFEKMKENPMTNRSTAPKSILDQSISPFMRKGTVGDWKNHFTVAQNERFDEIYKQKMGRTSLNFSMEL
How it was run: as §1

mSult1b1 = target: T5, mSult1b1 (Mus musculus, UniProt Q9QWG7)
T5 construct: made in house; host or cells: Salmonella typhimurium TA1538 (cytosolic fraction, enzyme not purified)
T5 sequence (Q9QWG7 whole entry): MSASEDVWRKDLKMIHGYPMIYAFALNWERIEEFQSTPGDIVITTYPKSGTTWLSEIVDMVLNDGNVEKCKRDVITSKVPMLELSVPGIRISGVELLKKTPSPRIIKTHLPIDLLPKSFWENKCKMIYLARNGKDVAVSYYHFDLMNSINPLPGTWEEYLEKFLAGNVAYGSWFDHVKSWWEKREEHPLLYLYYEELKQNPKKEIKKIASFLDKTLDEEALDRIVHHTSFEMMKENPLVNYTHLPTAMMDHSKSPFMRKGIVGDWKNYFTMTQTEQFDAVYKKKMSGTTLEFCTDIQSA
How it was run: as §1

hSULT2A1 = target: T6, hSULT2A1 (Homo sapiens, UniProt Q06520)
T6 construct: made in house; host or cells: Salmonella typhimurium TA1538 (cytosolic fraction, not purified)
T6 sequence (Q06520 1-285): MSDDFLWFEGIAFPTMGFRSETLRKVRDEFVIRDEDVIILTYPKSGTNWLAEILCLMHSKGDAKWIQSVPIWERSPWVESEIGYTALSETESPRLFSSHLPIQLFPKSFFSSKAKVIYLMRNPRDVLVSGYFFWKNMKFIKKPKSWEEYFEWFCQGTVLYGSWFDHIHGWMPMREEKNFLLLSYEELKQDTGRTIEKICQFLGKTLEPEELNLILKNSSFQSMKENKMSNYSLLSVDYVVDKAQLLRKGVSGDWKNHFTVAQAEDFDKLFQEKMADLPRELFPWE
How it was run: as §1

hSULT1C1 = target: T7, hSULT1C1 (Homo sapiens, UniProt O00338)
T7 construct: made in house; host or cells: Salmonella typhimurium TA1538 (cytosolic fraction, not purified)
T7 sequence (O00338 whole entry): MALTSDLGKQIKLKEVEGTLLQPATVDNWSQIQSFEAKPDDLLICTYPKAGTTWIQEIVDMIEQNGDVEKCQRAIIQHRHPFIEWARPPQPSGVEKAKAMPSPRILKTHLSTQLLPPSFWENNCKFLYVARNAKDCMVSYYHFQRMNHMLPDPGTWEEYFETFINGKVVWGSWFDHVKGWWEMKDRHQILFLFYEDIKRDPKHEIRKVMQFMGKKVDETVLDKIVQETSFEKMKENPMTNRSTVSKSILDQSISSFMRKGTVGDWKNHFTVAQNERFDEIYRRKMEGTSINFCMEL
How it was run: as §1

[1] = 1 mM FFA, corrected by actual SULT concentration in the cytosolic preparation

OCc1ccco1 [FFA, furfuryl alcohol]
Rate of N6-MF-A formation (mSult1a1; 0.1 mM FFA): 361 ± 4 fmol N ^6-MF-A/mg/min
Rate of N6-MF-A formation (mSult1a1; 1 mM FFA): 2,590 ± 20 fmol N ^6-MF-A/mg/min
Rate of N6-MF-A formation (corr.) (mSult1a1; [1]): 61,700 fmol N ^6-MF-A/mg/min and 61,700 ± 400 fmol N ^6-MF-A/mg/min
ratio of N6-MF-A formation rate, mSult1a1 vs mSult1d1 (mSult1a1; 1 mM FFA, corrected rates): about 14 fold
Rate of N6-MF-A formation (mSult1a1; 10 mM FFA): 5,140 ± 60 fmol N ^6-MF-A/mg/min
Rate of N6-MF-A formation (rSult1b1; 0.1 mM FFA): <18 fmol N ^6-MF-A/mg/min
Rate of N6-MF-A formation (rSult1b1; 1 mM FFA): 34.3 ± 1.0 fmol N ^6-MF-A/mg/min
Rate of N6-MF-A formation (rSult1b1; 10 mM FFA): 314 ± 4 fmol N ^6-MF-A/mg/min
Rate of N6-MF-A formation (hSULT1C2; 0.1 mM FFA): 51.3 ± 0.8 fmol N ^6-MF-A/mg/min
Rate of N6-MF-A formation (hSULT1C2; 1 mM FFA): 459 ± 2 fmol N ^6-MF-A/mg/min
Rate of N6-MF-A formation (corr.) (hSULT1C2; [1]): 45,900 fmol N ^6-MF-A/mg/min and 45,900 ± 200 fmol N ^6-MF-A/mg/min
Rate of N6-MF-A formation (hSULT1C2; 10 mM FFA): 2,230 ± 10 fmol N ^6-MF-A/mg/min
Rate of N6-MF-A formation (mSult1c2; 0.1 mM FFA): <18 fmol N ^6-MF-A/mg/min
Rate of N6-MF-A formation (mSult1c2; 1 mM FFA): <20 fmol N ^6-MF-A/mg/min
Rate of N6-MF-A formation (mSult1c2; 10 mM FFA): <44 fmol N ^6-MF-A/mg/min
Rate of N6-MF-A formation (mSult1b1; 0.1 mM FFA): <18 fmol N ^6-MF-A/mg/min
Rate of N6-MF-A formation (mSult1b1; 10 mM FFA): 74.3 ± 1.6 fmol N ^6-MF-A/mg/min
Rate of N6-MF-A formation (hSULT2A1; 0.1 mM FFA): <18 fmol N ^6-MF-A/mg/min
Rate of N6-MF-A formation (hSULT2A1; 1 mM FFA): 37.0 ± 0.6 fmol N ^6-MF-A/mg/min
Rate of N6-MF-A formation (corr.) (hSULT2A1; 1 mM FFA, corrected by SULT concentration reported in Meinl et al. [2006]): 2,110 ± 40^b fmol N ^6-MF-A/mg/min
Rate of N6-MF-A formation (hSULT2A1; 10 mM FFA): 386 ± 6 fmol N ^6-MF-A/mg/min
Rate of N6-MF-A formation (hSULT1C1; 0.1 mM FFA): <18 fmol N ^6-MF-A/mg/min
Rate of N6-MF-A formation (hSULT1C1; 1 mM FFA): <20 fmol N ^6-MF-A/mg/min
Rate of N6-MF-A formation (hSULT1C1; 10 mM FFA): <44 fmol N ^6-MF-A/mg/min
